In the supplement of paper PMC13380429:

Key:
Settings in all cases: 72 h
[1] = system: Calu-3; test: cell viability relative to DMSO; higher = less toxic
[2] = system: HepG2; test: as above
[3] = system: Vero E6; test: as above
[4] = system: U2OS; test: as above
[5] = system: Caco-2; test: as above
[6] = system: Calu-3; test: drug sensitivity score (DSS) for viability; higher = more toxic; extreme values may be limits of the assay
[7] = system: HepG2; test: as above
[8] = system: Vero E6; test: as above
[9] = system: U2OS; test: as above
[10] = system: Caco-2; test: as above
[11] = system: Calu-3; test: relative viability EC50 (midpoint between 100% and the lowest measured viability); higher = less toxic
[12] = system: Vero E6; test: as above
[13] = system: U2OS; test: as above
[14] = system: HepG2; test: as above

Compound | cell viability ([1]; 1 nM) [%] | cell viability ([1]; 10 nM) [%] | cell viability ([1]; 100 nM) [%] | cell viability ([1]; 1000 nM) [%] | cell viability ([1]; 10000 nM) [%] | cell viability ([2]; 1 nM) [%] | cell viability ([2]; 10 nM) [%] | cell viability ([2]; 100 nM) [%] | cell viability ([2]; 1000 nM) [%] | cell viability ([2]; 10000 nM) [%] | cell viability ([3]; 1 nM) [%] | cell viability ([3]; 10 nM) [%] | cell viability ([3]; 100 nM) [%] | cell viability ([3]; 1000 nM) [%] | cell viability ([3]; 10000 nM) [%] | cell viability ([4]; 1 nM) [%] | cell viability ([4]; 10 nM) [%] | cell viability ([4]; 100 nM) [%] | cell viability ([4]; 1000 nM) [%] | cell viability ([4]; 10000 nM) [%] | cell viability ([5]; 1 nM) [%] | cell viability ([5]; 10 nM) [%] | cell viability ([5]; 100 nM) [%] | cell viability ([5]; 1000 nM) [%] | cell viability ([5]; 10000 nM) [%] | drug sensitivity score [6] | drug sensitivity score [7] | drug sensitivity score [8] | drug sensitivity score [9] | drug sensitivity score [10] | relative viability EC50 [11] [µM] | relative viability EC50 [12] [µM] | relative viability EC50 [13] [µM] | relative viability EC50 [14] [µM]
C[C@H](NC(=O)C(C)(C)Oc1ccc(C(F)(F)F)cn1)[C@@H](Cc1ccc(Cl)cc1)c1cccc(C#N)c1 [taranabant] | 96.5 | 95.5 | 94.4 | 107 | 86.6 | 105 | 106 | 111 | 103 | 72.4 | 103 | 96.5 | 99.6 | 97.8 | 85.5 | 100 | 95.8 | 96.3 | 95.2 | 90.9 | 97.3 | 108 | 105 | 94.4 | 73.4 | 0 | 1 | 0.4 | 0 | 1.9 | > 10 | > 10 | > 10 | 
N.N.[Cl][Pt][Cl] [cisplatin] |  |  |  |  |  |  |  |  |  |  |  |  |  |  |  |  |  |  |  |  |  |  |  |  |  | 0.2 | 0 | 0 | 0 |  |  |  |  | 
O=C(C1CCCCC1)N1CC(=O)N2CCc3ccccc3C2C1 (centres undefined) [praziquantel] | 102 | 96.9 | 104 | 98.9 | 91.7 | 107 | 90.7 | 107 | 94.3 | 82.3 | 103 | 102 | 106 | 99.1 | 106 | 99 | 104 | 100 | 101 | 97.5 | 109 | 112 | 100 | 109 | 70.7 | 0 | 1 | 0 | 0 | 0.9 | > 10 | > 10 | > 10 | > 10
COc1ccc(C(=O)c2c(C)n(CCN3CCOCC3)c3cc(I)ccc23)cc1 [AM-630] | 92.9 | 102 | 104 | 102 | 92.9 | 93.3 | 82.5 | 104 | 94.3 | 91.6 | 97.8 | 96.5 | 102 | 100 | 97 | 96.2 | 101 | 97.2 | 98.5 | 94.1 | 97.3 | 113 | 81.1 | 94.2 | 69.7 | 0 | 0 | 0 | 0 | 2.1 | > 10 | > 10 | > 10 | > 10
CC(C)c1noc(N2CCC(COc3ccc(-c4ccc(S(C)(=O)=O)cc4)nc3)CC2)n1 | 96.4 | 101 | 92.4 | 94.4 | 106 | 97.1 | 106 | 109 | 97.3 | 50.9 | 98 | 100 | 98.8 | 89.3 | 103 | 99.3 | 94.1 | 97.6 | 100 | 101 | 92.5 | 93.5 | 101 | 95.6 | 72.5 | 0 | 2.9 | 0 | 0 | 1.8 | > 10 | > 10 | > 10 | 
CCOC(=O)[C@H](CCc1ccccc1)N[C@@H](C)C(=O)N1[C@H](C(=O)O)C[C@@H]2CCC[C@@H]21 [ramipril] |  |  |  |  |  |  |  |  |  |  |  |  |  |  |  |  |  |  |  |  |  |  |  |  |  | 0 | 0 | 0 | 0 |  |  |  |  | 
C=CC(=O)Nc1cccc(Nc2nc(Nc3ccc(N4CCN(C(C)=O)CC4)cc3OC)ncc2C(F)(F)F)c1 [rociletinib] | 95.6 | 88.6 | 88.3 | 57.8 | 16.6 | 106 | 96.1 | 90.2 | 79.2 | 42.3 | 105 | 99.7 | 99.4 | 101 | 83 | 100 | 93.9 | 101 | 88 | 16.7 | 97.4 | 95.9 | 98.3 | 92.3 | 62.6 | 10 | 5.3 | 0.3 | 6.6 | 3.1 | 0.822 | > 10 | 2.03 | 1.38
C#Cc1cccc(Nc2ncnc3cc(OCCOC)c(OCCOC)cc23)c1 [erlotinib] | 107 | 109 | 86.2 | 52 | 30.1 | 108 | 122 | 104 | 97.8 | 58.2 | 111 | 104 | 92 | 73.4 | 26.8 | 96.7 | 96.4 | 94.2 | 93.5 | 82.9 | 105 | 92.5 | 98.2 | 79.7 | 54.2 | 10.6 | 2.4 | 7.1 | 0.4 | 4.7 | 0.453 | 1.36 | > 10 | 
